In US20240131045A1, “METHODS FOR TREATMENT OF VIRAL INFECTIONS” (priority 2022, published 2024):
Read-outs that look alike come from different tables or passages of the source.

Tests used:
[1] = in vivo; conditions: monkey
[2] = Intracellular PK of compound A (GS-443902) in PBMCs, Phase 1 study; conditions: healthy participants
[3] = human, in vivo, 500 mg
[4] = Urine PK and renal clearance of compound 1, Phase 1 study
[5] = Phase 1 single- and multiple-ascending dose study, compound 1 plasma PK in healthy participants
[6] = Phase 1 study, safety and tolerability in healthy participants
[7] = human, in vivo
[8] = both, human, in vivo
[9] = human, in vivo; remark: listed apart in the source
Excerpt: To note, eGFR was estimated using Modification of Diet in Renal Disease (MDRD) equation shown below. Furthermore, participants with kidney failure who were on dialysis are not included in this regression analysis.

N#C[C@@]1(c2ccc3c(N)ncnn23)O[C@H](CO)[C@@H](O)[C@H]1O [compound 1]
AUC(0-t) [1]: 18200 to 36400 ng·h/mL

CC(C)C(=O)OC[C@H]1O[C@@](C#N)(c2ccc3c(N)ncnn23)[C@H](O)[C@@H]1O [compound 16, obeldesivir]
intracellular concentrations of compound A in PBMCs versus dose [2]: Dose-proportional increases | Compound 1 plasma AUC0-24 [3]: 20,903 h · ng/mL | Compound 1 plasma AUCinf [3]: 22,100 h · ng/mL | Compound 1 plasma AUClast [3]: 22,000 h · ng/mL | Compound 1 plasma Cmax [3]: 3600 ng/mL | Compound 1 plasma t1/2 [3]: 6.3 h | compound 16 in urine ([4]; in vivo): not detectable | target therapeutic exposures of plasma compound 1 and intracellular compound A ([5]; 900 mg QD and 500 mg BID for 5 days, respectively): reached or exceeded | dose proportionality of compound 1 PK ([5]; 1600 mg dose): less than dose-proportional increases | dose proportionality of compound 1 PK ([5]; 100 to 900 mg range): linear and dose-proportional PK | compound 16 prodrug levels in plasma ([5]; healthy participants): either undetectable or low and transient | AE ([6]; 500 mg BID (n = 6)): 2 n | AE related to study drug ([6]; 500 mg BID (n = 6)): 1 n | Grade 2 creatinine clearance decrease ([6]; 500 mg BID (n = 6)): 0 n | Grade 2 laboratory abnormalities ([6]; 500 mg BID (n = 6)): 0 n | Grade 3 laboratory abnormalities ([6]; 500 mg BID (n = 6)): 0 n | Grade 3 lipase increase ([6]; 500 mg BID (n = 6)): 0 n | Grade ≥3 AE ([6]; 500 mg BID (n = 6)): 0 n | AE ([6]; 900 mg QD (n = 6)): 1 n | AE related to study drug ([6]; 900 mg QD (n = 6)): 0 n | Grade 2 creatinine clearance decrease ([6]; 900 mg QD (n = 6)): 2 n | Grade 2 laboratory abnormalities ([6]; 900 mg QD (n = 6)): 2 n | Grade 3 laboratory abnormalities ([6]; 900 mg QD (n = 6)): 0 n | Grade 3 lipase increase ([6]; 900 mg QD (n = 6)): 0 n | Grade ≥3 AE ([6]; 900 mg QD (n = 6)): 0 n | participants with headache (Grade 1) attributed to study drug ([6]; 2 of 8 participants, Cohort 5 (500 mg BID for 5 days)): 25% | participants with contact dermatitis ([6]; 2 of 48 participants): 4.2% | participants with study drug-related AEs (headaches) ([6]; 2 of 58 participants who received compound 16): 3.4% | participants with headache ([6]; 3 of 48 participants): 6.3% | participants with decreased creatinine clearance ([6]; 6 of 8 participants, Cohort 4 (1,600 mg single dose)): 75% | participants with treatment-emergent adverse events (TEAEs) ([6]; 10 of 48 participants, compound 16 or placebo, Cohorts 1-6): 21% | participants with decreased creatinine clearance ([6]; 13 of 48 participants overall): 27% | participants with a decrease in creatinine clearance ([6]; 18 of 58 participants who received compound 16): 31% | participants with graded postbaseline laboratory abnormalities ([6]; 25 of 48 participants): 52.1% | Grade 3 or higher AEs ([6]; 48 participants, Cohorts 1-6): no Grade 3 or higher AEs | serious AEs ([6]; 48 participants, Cohorts 1-6): no serious AEs | Grade 3 laboratory abnormality (lipase elevation at Day 3) ([6]; Cohort 2 (300 mg single dose)): one Grade 3 laboratory abnormality | changes in vital signs, electrocardiograms (ECGs), visual acuity, or fundoscopic examinations ([6]; Cohorts 1-6): no clinically relevant changes | safety and tolerability ([6]; Example 2, Cohorts 1-6, compound 16 or placebo): safe and well tolerated | safety and tolerability ([6]; Example 4, healthy participants): safe and well tolerated | AE ([6]; Fasted 500 mg (n = 11)): 3 n | AE related to study drug ([6]; Fasted 500 mg (n = 11)): 1 n | Grade 2 creatinine clearance decrease ([6]; Fasted 500 mg (n = 11)): 2 n | Grade 2 laboratory abnormalities ([6]; Fasted 500 mg (n = 11)): 2 n | Grade 3 laboratory abnormalities ([6]; Fasted 500 mg (n = 11)): 0 n | Grade 3 lipase increase ([6]; Fasted 500 mg (n = 11)): 0 n | Grade ≥3 AE ([6]; Fasted 500 mg (n = 11)): 0 n | AE ([6]; Fed 500 mg (n = 11)): 1 n | AE related to study drug ([6]; Fed 500 mg (n = 11)): 0 n | Grade 2 creatinine clearance decrease ([6]; Fed 500 mg (n = 11)): 5 n | Grade 2 laboratory abnormalities ([6]; Fed 500 mg (n = 11)): 5 n | Grade 3 laboratory abnormalities ([6]; Fed 500 mg (n = 11)): 0 n | Grade 3 lipase increase ([6]; Fed 500 mg (n = 11)): 0 n | Grade ≥3 AE ([6]; Fed 500 mg (n = 11)): 0 n | AE ([6]; single dose 100 mg (n = 6)): 1 n | AE related to study drug ([6]; single dose 100 mg (n = 6)): 0 n | Grade 2 creatinine clearance decrease ([6]; single dose 100 mg (n = 6)): 0 n | Grade 2 laboratory abnormalities ([6]; single dose 100 mg (n = 6)): 1 n | Grade 3 laboratory abnormalities ([6]; single dose 100 mg (n = 6)): 0 n | Grade 3 lipase increase ([6]; single dose 100 mg (n = 6)): 0 n | Grade ≥3 AE ([6]; single dose 100 mg (n = 6)): 0 n | AE ([6]; single dose 300 mg (n = 6)): 0 n | AE related to study drug ([6]; single dose 300 mg (n = 6)): 0 n | Grade 2 creatinine clearance decrease ([6]; single dose 300 mg (n = 6)): 1 n | Grade 2 laboratory abnormalities ([6]; single dose 300 mg (n = 6)): 1 n | Grade 3 laboratory abnormalities ([6]; single dose 300 mg (n = 6)): 1 n | Grade 3 lipase increase ([6]; single dose 300 mg (n = 6)): 1 n | Grade ≥3 AE ([6]; single dose 300 mg (n = 6)): 0 n | AE ([6]; single dose 900 mg (n = 6)): 0 n | AE related to study drug ([6]; single dose 900 mg (n = 6)): 0 n | Grade 2 creatinine clearance decrease ([6]; single dose 900 mg (n = 6)): 2 n | Grade 2 laboratory abnormalities ([6]; single dose 900 mg (n = 6)): 2 n | Grade 3 laboratory abnormalities ([6]; single dose 900 mg (n = 6)): 0 n | Grade 3 lipase increase ([6]; single dose 900 mg (n = 6)): 0 n | Grade ≥3 AE ([6]; single dose 900 mg (n = 6)): 0 n | AE ([6]; single dose 1600 mg (n = 6)): 2 n | AE related to study drug ([6]; single dose 1600 mg (n = 6)): 0 n | Grade 2 creatinine clearance decrease ([6]; single dose 1600 mg (n = 6)): 6 n | Grade 2 laboratory abnormalities ([6]; single dose 1600 mg (n = 6)): 6 n | Grade 3 laboratory abnormalities ([6]; single dose 1600 mg (n = 6)): 0 n | Grade 3 lipase increase ([6]; single dose 1600 mg (n = 6)): 0 n | Grade ≥3 AE ([6]; single dose 1600 mg (n = 6)): 0 n | compound 1 metabolite renal clearance [7]: 150 to 180 mL/min | compound 1 terminal plasma elimination half-life [8]: 6 to 7 h | Compound 1 plasma AUC (AUCinf) ([8]; 100 mg): 3700 ng·h/mL | Compound 1 plasma Cmax ([8]; 100 mg): 570 ng/mL | Compound 1 plasma t1/2 ([8]; 100 mg): 5.85 h | Compound 1 plasma AUC (AUCinf) ([8]; 300 mg): 10,400 h · ng/mL | Compound 1 plasma Cmax ([8]; 300 mg): 1830 ng/mL | Compound 1 plasma Tmax ([8]; 300 mg): 0.78 h | Compound 1 plasma Cmax ([8]; 500 mg): 3820 ng/mL | Compound 1 plasma AUC (AUCD1) ([8]; 900 mg): 32,000 h · ng/mL | Compound 1 plasma AUC (AUCinf) ([8]; 900 mg): 34,600 h · ng/mL | Compound 1 plasma AUC (AUCtau) ([8]; 900 mg): 35,700 h · ng/mL | Compound 1 plasma Tmax ([8]; 900 mg): 1.5 h | Compound 1 plasma t1/2 ([8]; 900 mg): 7.36 h | Compound 1 plasma AUC (AUCinf) ([8]; 1600 mg): 48,300 h · ng/mL | Compound 1 plasma Cmax ([8]; 1600 mg): 7170 ng/mL | Compound 1 plasma Tmax ([8]; 1600 mg): 1.5 h | Compound 1 plasma t1/2 ([8]; 1600 mg): 15.7 h | plasma half-life of metabolite compound 1 ([8]; po): ~6 h

CCC(CC)COC(=O)[C@H](C)N[P@](=O)(OC[C@H]1O[C@@](C#N)(c2ccc3c(N)ncnn23)[C@H](O)[C@@H]1O)Oc1ccccc1 [remdesivir]
compound 1 renal clearance (CLr) after remdesivir or compound 16 administration ([4]; amount excreted in urine over the corresponding plasma AUC): comparable | plasma increase of compound 1 AUCinf [9]: ~35% | plasma increase of compound 1 Cmax [9]: ~10%
